Reference: US20110039700A1, “Method for Improved Utilization of the Production Potential of Transgenic Plants Introduction” (priority 2008, published 2011)

Key:
Format in all cases: in vivo
Spodoptera exigua = assay: Foliar application Spodoptera exigua/maize; conditions: 96 h, read-out: Mortality in % after 4^d
Experimental: Pots containing in each case 5 transgenic maize plants with Lepidoptera, Coleoptera and/or herbicide resistance are treated against the beet army worm (Spodoptera exigua) in 2 replications.
(§1) After the desired period of time, the mortality in % is determined. Here 100% means that all caterpillars have been killed; 0% means that none of the caterpillars have been killed.

Spodoptera frugiperda [1] = assay: Drench application Spodoptera frugiperda/maize; conditions: soil, 96 h, read-out: Mortality in % after 4^d
Experimental: Pots containing in each case 5 transgenic maize plants with Lepidoptera, Coleoptera and/or herbicide resistance are treated by drenching against the fall army worm (Spodoptera frugiperda) in 2 replications.
as §1

Spodoptera frugiperda [2] = assay: Foliar application Spodoptera frugiperda/cotton; conditions: 72 h, read-out: Mortality in % after 3^d
Experimental: Individually potted transgenic cotton plants with Lepidoptera resistance and herbicide resistance (Line DP444 BG/RR) are treated with the desired product against the fall army worm (Spodoptera frugiperda).
as §1

With `Cc1cc(C)c(C2=C(OC(=O)CC(C)(C)C)C3(CCCC3)OC2=O)c(C)c1` [spiromesifen] the mortality at 100 ppm (Spodoptera exigua) was 0% and the mortality at 100 ppm (Spodoptera frugiperda [1]) was 10%.

In the case of `CCC(C)(C)C(=O)OC1=C(c2ccc(Cl)cc2Cl)C(=O)OC12CCCCC2` [spirodiclofen], the mortality at 500 ppm (Spodoptera frugiperda [2]) is reported as 0%.
